Reference: the supplement of paper PMC10307832

Experiments:
Assay in all cases: relative viability (nuclei count vs DMSO), 5 days (fraction); higher = more cells survive
[1] = compound: Cc1ccccc1C(C(=O)NC1CCCCC1)N(C(=O)Cn1ccnc1C)c1cccc(F)c1 [IDH-C35] + Cc1nc(Nc2ncc(C(=O)Nc3c(C)cccc3Cl)s2)cc(N2CCN(CCO)CC2)n1 [Dasatinib] (partner 0.075 µM)
Procedure, shortened: (§1)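 Five library-drug doses in √10 steps were combined with a fixed anchor-drug dose, or a single drug was given alone, by pin tool to lung cancer cell lines in 1536-well plates the day after seeding. Nuclei were stained and counted after 5 days. Relative viability is the nuclei count in treated wells over that in vehicle wells, taken as the median of duplicate plates.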

[2] = compound: CC1=C(C(=NN1)C)CC2=C(C3=C(S2)N(C(=O)N(C3=O)C)CC(C)C)C(=O)N4C[C@@H](CO4)O + Nc1ncn([C@H]2C[C@H](O)[C@@H](CO)O2)c(=O)n1 [Decitabine] (partner 2 µM)
Procedure, shortened: as §1

[3] = compound: Cc1ccccc1C(C(=O)NC1CCCCC1)N(C(=O)Cn1ccnc1C)c1cccc(F)c1 [IDH-C35] + CCNC(=O)c1noc(-c2cc(C(C)C)c(O)cc2O)c1-c1ccc(CN2CCOCC2)cc1 [Luminespib] (partner 0.01 µM)
Procedure, shortened: as §1

[4] = compound: CC1=C(C(=NN1)C)CC2=C(C3=C(S2)N(C(=O)N(C3=O)C)CC(C)C)C(=O)N4C[C@@H](CO4)O + CC(C)C[C@H](NC(=O)[C@H](Cc1ccccc1)NC(=O)c1cnccn1)B(O)O [Bortezomib] (partner 0.002 µM)
Procedure, shortened: as §1

Row | Cell Line | relative viability ([1]; first compound 0.08 µM) | relative viability ([1]; first compound 0.253 µM) | relative viability ([1]; first compound 0.8 µM) | relative viability ([1]; first compound 2.53 µM) | relative viability ([1]; first compound 8 µM) | relative viability ([2]; first compound 0.0025 µM) | relative viability ([2]; first compound 0.007906 µM) | relative viability ([2]; first compound 0.025 µM) | relative viability ([2]; first compound 0.07906 µM) | relative viability ([2]; first compound 0.25 µM) | relative viability ([3]; first compound 0.08 µM) | relative viability ([3]; first compound 0.253 µM) | relative viability ([3]; first compound 0.8 µM) | relative viability ([3]; first compound 2.53 µM) | relative viability ([3]; first compound 8 µM) | relative viability ([4]; first compound 0.0025 µM) | relative viability ([4]; first compound 0.007906 µM) | relative viability ([4]; first compound 0.025 µM) | relative viability ([4]; first compound 0.07906 µM) | relative viability ([4]; first compound 0.25 µM)
1 | NCI-H1650 | 0.328 | 0.35 | 0.328 | 0.269 | 0.304 | 0.365 | 0.424 | 0.388 | 0.292 | 0.309 | 0.207 | 0.182 | 0.214 | 0.2 | 0.199 | 0.218 | 0.203 | 0.234 | 0.17 | 0.189
2 | NCI-H1651 | 0.416 | 0.398 | 0.426 | 0.404 | 0.382 | 0.519 | 0.699 | 0.538 | 0.579 | 0.567 | 0.861 | 0.6 | 0.67 | 0.797 | 0.716 | 0.956 | 1.02 | 0.889 | 0.879 | 0.856
3 | NCI-H1666 | 0.784 | 0.807 | 0.794 | 0.795 | 0.728 | 0.631 | 0.831 | 0.74 | 0.666 | 0.658 | 0.984 | 0.979 | 1.04 | 1.04 | 1 | 0.933 | 0.874 | 0.821 | 0.778 | 0.81
4 | NCI-H1734 | 0.469 | 0.524 | 0.511 | 0.458 | 0.419 | 0.561 | 0.516 | 0.533 | 0.451 | 0.503 | 0.193 | 0.215 | 0.214 | 0.19 | 0.191 | 0.946 | 0.736 | 0.893 | 0.835 | 0.747
5 | NCI-H1755 | 0.374 | 0.409 | 0.433 | 0.409 | 0.465 | 0.699 | 0.811 | 0.742 | 0.646 | 0.696 | 0.535 | 0.365 | 0.454 | 0.412 | 0.715 | 1.01 | 0.875 | 0.962 | 0.963 | 1.13
6 | NCI-H1792 | 0.725 | 0.728 | 0.473 | 0.944 | 0.815 | 0.483 | 0.489 | 0.408 | 0.451 | 0.517 | 0.477 | 0.473 | 0.499 | 0.413 | 0.493 | 0.94 | 1.01 | 0.861 | 0.878 | 0.786
7 | NCI-H1915 | 0.328 | 0.308 | 0.304 | 0.326 | 0.309 | 0.279 | 0.265 | 0.242 | 0.258 | 0.265 | 0.787 | 0.715 | 0.755 | 0.815 | 0.747 | 0.987 | 1.03 | 0.974 | 0.827 | 1.03
8 | NCI-H1975 | 0.35 | 0.42 | 0.366 | 0.483 | 0.346 | 0.37 | 0.41 | 0.393 | 0.444 | 0.423 | 0.165 | 0.244 | 0.206 | 0.276 | 0.135 | 0.423 | 0.338 | 0.42 | 0.409 | 0.342
9 | NCI-H1993 | 0.654 | 0.53 | 0.577 | 0.559 | 0.621 | 0.59 | 0.523 | 0.607 | 0.595 | 0.536 | 0.793 | 0.882 | 0.914 | 0.836 | 0.936 | 1.19 | 1.12 | 1.09 | 1.01 | 1.15
10 | NCI-H2009 | 0.309 | 0.33 | 0.341 | 0.311 | 0.303 | 0.412 | 0.408 | 0.342 | 0.418 | 0.407 | 1.08 | 1.01 | 0.999 | 0.921 | 1.01 | 1.03 | 1.08 | 0.975 | 1.09 | 1.13
11 | NCI-H2023 | 0.59 | 0.549 | 0.673 | 0.517 | 0.559 | 0.23 | 0.255 | 0.211 | 0.231 | 0.244 | 0.617 | 0.769 | 0.854 | 0.722 | 0.506 | 1.11 | 1.11 | 0.945 | 0.975 | 0.963
12 | NCI-H2085 | 0.275 | 0.261 | 0.223 | 0.277 | 0.266 | 0.526 | 0.543 | 0.536 | 0.473 | 0.661 | 0.352 | 0.458 | 0.519 | 0.428 | 0.416 | 1.04 | 0.978 | 0.947 | 0.98 | 0.926
13 | NCI-H2087 | 0.944 | 0.995 | 0.9 | – | 0.814 | 0.315 | 0.28 | 0.274 | 0.295 | 0.248 | 0.105 | 0.141 | 0.164 | – | 0.128 | 0.996 | 0.716 | 0.705 | 0.909 | 1.05
14 | NCI-H2126 | 0.6 | 0.651 | 0.596 | 0.605 | 0.588 | 0.575 | 0.561 | 0.564 | 0.512 | 0.603 | 0.841 | 0.858 | 0.892 | 0.897 | 0.883 | 1.11 | 1.15 | 1.07 | 1.07 | 1.15
15 | NCI-H2347 | 0.337 | 0.3 | 0.243 | 0.343 | 0.282 | 0.638 | 0.649 | 0.608 | 0.56 | 0.662 | 0.653 | 0.575 | 0.48 | 0.508 | 0.369 | 1.09 | 1.15 | 0.684 | 0.718 | 0.852
16 | NCI-H2405 | 0.209 | 0.212 | 0.213 | 0.206 | 0.184 | 0.686 | 0.746 | 0.752 | 0.738 | 0.739 | 0.755 | 0.63 | 0.614 | 0.706 | 0.64 | 0.991 | 0.912 | 0.918 | 0.858 | 0.941
